The text below walks through data of US9150589B2, “Polymorphous forms III and IV of N-benzoyl—staurosporine” (NOVARTIS AG, priority 2009, dated 2015).

This data set is described as follows: Thermal decomposition on heating under nitrogen atmosphere. The note with it: heating rate of 20K/min under nitrogen atmosphere. In kind it is physicochemical. How it is done:
The crystalline form III decomposes above 270° C., when heated with a heating rate of 20K/min under nitrogen atmosphere.
The crystalline form IV decomposes at about 270° C. when heated at 20K/min under nitrogen atmosphere.

On to `CO[C@@H]1[C@H](N(C)C(=O)c2ccccc2)C[C@H]2O[C@]1(C)n1c3ccccc3c3c4c(c5c6ccccc6n2c5c31)C(=O)NC4` [crystalline form III, N-[(9S,10R,11R,13R)-2,3,10,11,12,13-hexahydro-10-methoxy-9-methyl-1-oxo-9,13-epoxy-1H,9H-diindolo[1,2,3-gh:3′,2′,1′-lm]pyrrolo[3,4-j][1,7]benzodiazonin-11-yl]-N-methylbenzamide], for which the decomposition temperature entry was “above 270 °C”.
For `CO[C@@H]1[C@H](N(C)C(=O)c2ccccc2)C[C@H]2O[C@]1(C)n1c3ccccc3c3c4c(c5c6ccccc6n2c5c31)C(=O)NC4` [crystalline form IV, N-[(9S,10R,11R,13R)-2,3,10,11,12,13-hexahydro-10-methoxy-9-methyl-1-oxo-9,13-epoxy-1H,9H-diindolo[1,2,3-gh:3′,2′,1′-lm]pyrrolo[3,4-j][1,7]benzodiazonin-11-yl]-N-methylbenzamide] the value was “about 270 °C”.
